{
  "source": "patent US20260123631A1",
  "about": "“NATURAL PORPHIN SALT AND USE THEREOF AS PLANT GROWTH REGULATOR AND PLANT IMMUNITY INDUCER” (NANJING BOSTEC BIOLOGICAL ENGINEERING CO., LTD, priority 2022, published 2026)",
  "key": {"wheat": {"system": "wheat", "assay": "Germination of wheat and growth of seedlings", "assay_type": "in vivo, wheat (Huaimai 35)", "details": "for Root length / Root number / Root weight / Seedling height / Seedling weight: wheat seedlings", "method": "Method: 3 replicates were set for each treatment. 50 full seeds with a consistent size were selected each time for each sample, disinfected with sodium hypochlorite for 5 min, rinsed with clear water, and placed in a plastic box filled with 100 g of a sand. 25 mL of a prepared sample solution was poured into the plastic box, and the seeds were arranged regularly. The plastic box was covered with a lid, and then incubated in a 25° C. incubator. The germination was determined when a length of a sprout of a wheat seed exceeded a half of a diameter (long axis) of the wheat seed (determination criterion). According to the growth of wheat, the germ exposure of seeds and the number of germinated seeds were recorded every day. On day 6, 10 wheat seedlings were randomly selected, and a root length, a plant height, and a root number were determined. On day 7, a root weight and an aboveground part weight were determined. All index data was produced based on 3 replicates."}, "rice [1]": {"system": "rice", "assay": "Rice yield in the sheath blight field experiment", "assay_type": "in vivo, rice (Nanjing 9108)", "details": "3.0 mg/mu sprayed 3 times", "method": "A test sample was dissolved, diluted, thoroughly stirred, and then applied, with an application area of 3 mu for each treatment. The harvesting was conducted on Nov. 8, 2021. On the eve of harvesting, the yield composition and structure were investigated. Then a yield per mu was measured."}, "chlorophyllase": {"target": "chlorophyllase", "assay": "In vitro chlorophyllase-inhibiting activity test", "assay_type": "biochemical, mung bean", "details": "substrate chlorophyll 120 ppm, sample 0.3 ppm to 30.0 ppm", "method": "A chlorophyllase inhibition rate of a salt sample solution at each concentration was determined, and an IC50 value for a chlorophyllase inhibition activity of a salt sample was calculated."}, "tobacco": {"system": "tobacco", "assay": "Spraying on tobacco to improve a yield", "assay_type": "in vivo, tobacco (Yunyan 87)", "details": "45 L per mu", "method": "Method: Four spraying concentrations were set. For each treatment, four plots were adopted, with each plot of 20 m^2. […] During harvesting, sampling was conducted to count a plant height, a leaf length, a leaf width, and a single-leaf weight. All tobacco leaves of the plots were baked into flue-cured tobacco. […]"}, "rice [2]": {"system": "rice", "assay": "Rice yield in the leaf blast field experiment", "assay_type": "in vivo, rice (Nanjing 9108)", "details": "3 mg/mu sprayed 3 times", "method": "The experiment was conducted according to experimental specifications in the field efficacy standard of GB/T17980.19-2000. In the experiment, the following two treatments were set: a first treatment: sodium iron chlorin was applied, and a second treatment: a blank control (water) was applied. A test sample was fully dissolved and diluted, and then applied. Based on the characteristics of disease and pest control, an agent was applied once at each of a late tillering stage (Jul. 22, 2021), a jointing-booting stage (Aug. 16, 2021), and a full heading stage (Aug. 30, 2021). […] Water amounts required per mu for the three times were 30 L, 45 L, and 45 L (sample concentrations: 0.1 ppm, 0.067 ppm, and 0.067 ppm), respectively. An area for each treatment was 3 mu. According to a five-point sampling method, 5 sampling points (20 m^2 per sampling point) were set for each treatment. The occurrence of leaf blast in rice was investigated in the field before harvesting.\nThe harvesting was conducted on Nov. 8, 2021. On the eve of harvesting, the yield composition and structure were investigated. Then a yield per mu was measured."}, "Phytophthora capsici": {"system": "Phytophthora capsici", "assay": "Pot experiment: resistance of pepper to phytophthora blight", "assay_type": "in vivo", "details": "2.0 ppm sprayed on pepper seedlings (Sujiao No. 5), inoculated 3 d later", "protocol": "Preparation of Phytophthora capsici zoospores: Fungal discs were collected at an edge of a newly-activated Phytophthora capsici plate. 6 mm fungal discs were picked with a needle and transferred to an empty Petri dish with a diameter of 9 cm, with fungi facing up and 10 fungal discs for each plate. 15 mL of sterilized water was added to the Petri dish, and the Petri dish was placed in a clean bench under light. The water was changed once every 30 min for 3 times in total. The remaining wastewater was removed by a pipette, and then 10 mL of the V8 liquid medium was added. The Petri dish was incubated in a 25° C. incubator for 24 h in the dark to induce the production of a large number of sporangiospores. Then the Petri dish was placed in a 4° C. refrigerator for 30 min and then incubated in a 25° C. incubator for 30 min, such that a large number of zoospores were released. 10 L of a sample was collected, and observed and counted with a hemocytometer under a microscope. The remaining sample was collected for later use.\nPepper seedlings at a 4-6 leaf stage were transplanted, with one plant in each pot. […] 3 replicates were set for each treatment, and 18 pots were adopted for each replicate. After the treatment, the observation was conducted regularly once a day. An incidence rate of pepper was recorded, and a disease index and a control efficiency were counted. […]"}, "[3]": {"assay": "Stability of sample solutions in the dark/under light", "assay_type": "physicochemical", "procedure,_shortened": "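Salt in water, or acidic reference in 30–50% aqueous ethanol, at about 10 ppm; UV absorbance scanned 200–800 nm at 0, 1, 2, 3 h, stored at 25° C dark or under 30,000 lux light. Relative content = max-peak absorbance at each time divided by 0 h value (100%).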"}},
  "data": [
    {"substance": "sodium iron chlorin [Example 21]", "values": [
      {"measurement": "Germination rate of wheat", "setting": "wheat; 0.0025 ppm", "result": 94.0, "unit": "%"},
      {"measurement": "Root length", "setting": "wheat; 0.0025 ppm", "result": 9.30, "unit": "cm"},
      {"measurement": "Root number", "setting": "wheat; 0.0025 ppm", "result": 5.3},
      {"measurement": "Root weight", "setting": "wheat; 0.0025 ppm", "result": 0.0953, "unit": "g"},
      {"measurement": "Seedling height", "setting": "wheat; 0.0025 ppm", "result": 8.88, "unit": "cm"},
      {"measurement": "Seedling weight", "setting": "wheat; 0.0025 ppm", "result": 0.170, "unit": "g"},
      {"measurement": "Germination rate of wheat", "setting": "wheat; 0.0250 ppm", "result": 95.3, "unit": "%"},
      {"measurement": "Root length", "setting": "wheat; 0.0250 ppm", "result": 10.17, "unit": "cm"},
      {"measurement": "Root number", "setting": "wheat; 0.0250 ppm", "result": 5.2},
      {"measurement": "Root weight", "setting": "wheat; 0.0250 ppm", "result": 0.1027, "unit": "g"},
      {"measurement": "Seedling height", "setting": "wheat; 0.0250 ppm", "result": 9.13, "unit": "cm"},
      {"measurement": "Seedling weight", "setting": "wheat; 0.0250 ppm", "result": 0.178, "unit": "g"},
      {"measurement": "Germination rate of wheat", "setting": "wheat; 0.2500 ppm", "result": 93.3, "unit": "%"},
      {"measurement": "Root length", "setting": "wheat; 0.2500 ppm", "result": 9.64, "unit": "cm"},
      {"measurement": "Root number", "setting": "wheat; 0.2500 ppm", "result": 4.9},
      {"measurement": "Root weight", "setting": "wheat; 0.2500 ppm", "result": 0.0867, "unit": "g"},
      {"measurement": "Seedling height", "setting": "wheat; 0.2500 ppm", "result": 7.95, "unit": "cm"},
      {"measurement": "Seedling weight", "setting": "wheat; 0.2500 ppm", "result": 0.145, "unit": "g"},
      {"measurement": "Ear number per mu", "setting": "rice [1]", "result": "26.14 10,000"},
      {"measurement": "Filled grain number per ear", "setting": "rice [1]", "result": 99.93},
      {"measurement": "Thousand-grain weight", "setting": "rice [1]", "result": 27.00, "unit": "g"},
      {"measurement": "Yield", "setting": "rice [1]", "result": 705.38, "unit": "kg/mu"},
      {"measurement": "Yield increase rate", "setting": "rice [1]; versus clear water", "result": 11.46, "unit": "%"},
      {"measurement": "IC50 for chlorophyllase inhibition activity", "setting": "chlorophyllase", "result": 5.22, "unit": "ppm"},
      {"measurement": "Leaf length", "setting": "tobacco; 0.05 ppm sprayed twice", "result": 76.0, "unit": "cm"},
      {"measurement": "Leaf width", "setting": "tobacco; 0.05 ppm sprayed twice", "result": 28.5, "unit": "cm"},
      {"measurement": "Plant height", "setting": "tobacco; 0.05 ppm sprayed twice", "result": 114.2, "unit": "cm"},
      {"measurement": "Weight/leaf", "setting": "tobacco; 0.05 ppm sprayed twice", "result": 8.4, "unit": "g"},
      {"measurement": "Yield", "setting": "tobacco; 0.05 ppm sprayed twice", "result": 133.75, "unit": "kg/mu"},
      {"measurement": "Yield increase rate", "setting": "tobacco; 0.05 ppm sprayed twice", "result": 9.4, "unit": "%"},
      {"measurement": "Leaf length", "setting": "tobacco; 0.10 ppm sprayed twice", "result": 77.2, "unit": "cm"},
      {"measurement": "Leaf width", "setting": "tobacco; 0.10 ppm sprayed twice", "result": 28.9, "unit": "cm"},
      {"measurement": "Plant height", "setting": "tobacco; 0.10 ppm sprayed twice", "result": 116.7, "unit": "cm"},
      {"measurement": "Weight/leaf", "setting": "tobacco; 0.10 ppm sprayed twice", "result": 8.7, "unit": "g"},
      {"measurement": "Yield", "setting": "tobacco; 0.10 ppm sprayed twice", "result": 138.67, "unit": "kg/mu"},
      {"measurement": "Yield increase rate", "setting": "tobacco; 0.10 ppm sprayed twice", "result": 13.5, "unit": "%"},
      {"measurement": "Leaf length", "setting": "tobacco; 0.20 ppm sprayed twice", "result": 75.6, "unit": "cm"},
      {"measurement": "Leaf width", "setting": "tobacco; 0.20 ppm sprayed twice", "result": 28.4, "unit": "cm"},
      {"measurement": "Plant height", "setting": "tobacco; 0.20 ppm sprayed twice", "result": 114.3, "unit": "cm"},
      {"measurement": "Weight/leaf", "setting": "tobacco; 0.20 ppm sprayed twice", "result": 8.4, "unit": "g"},
      {"measurement": "Yield", "setting": "tobacco; 0.20 ppm sprayed twice", "result": 133.59, "unit": "kg/mu"},
      {"measurement": "Yield increase rate", "setting": "tobacco; 0.20 ppm sprayed twice", "result": 9.3, "unit": "%"},
      {"measurement": "Leaf length", "setting": "tobacco; 0.30 ppm sprayed twice", "result": 74.7, "unit": "cm"},
      {"measurement": "Leaf width", "setting": "tobacco; 0.30 ppm sprayed twice", "result": 28, "unit": "cm"},
      {"measurement": "Plant height", "setting": "tobacco; 0.30 ppm sprayed twice", "result": 114.5, "unit": "cm"},
      {"measurement": "Weight/leaf", "setting": "tobacco; 0.30 ppm sprayed twice", "result": 8.3, "unit": "g"},
      {"measurement": "Yield", "setting": "tobacco; 0.30 ppm sprayed twice", "result": 132.54, "unit": "kg/mu"},
      {"measurement": "Yield increase rate", "setting": "tobacco; 0.30 ppm sprayed twice", "result": 8.5, "unit": "%"},
      {"measurement": "Ear number per mu", "setting": "rice [2]", "result": "22.40 10,000"},
      {"measurement": "Filled grain number per ear", "setting": "rice [2]", "result": 117.39},
      {"measurement": "Thousand-grain weight", "setting": "rice [2]", "result": 26.9, "unit": "g"},
      {"measurement": "Yield", "setting": "rice [2]", "result": 616.85, "unit": "kg/mu"},
      {"measurement": "Yield increase rate", "setting": "rice [2]; versus water", "result": 7.1, "unit": "%"},
      {"measurement": "Control effect", "setting": "Phytophthora capsici", "result": 71.89, "unit": "%"},
      {"measurement": "Disease index", "setting": "Phytophthora capsici", "result": 24.36},
      {"measurement": "Relative content", "setting": "[3]; in the dark, 25° C., 0 h", "result": 100.0, "unit": "%"},
      {"measurement": "Relative content", "setting": "[3]; in the dark, 25° C., 1 h", "result": 99.51, "unit": "%"},
      {"measurement": "Relative content", "setting": "[3]; in the dark, 25° C., 2 h", "result": 99.60, "unit": "%"},
      {"measurement": "Relative content", "setting": "[3]; in the dark, 25° C., 3 h", "result": 99.43, "unit": "%"},
      {"measurement": "Relative content", "setting": "[3]; under light 30,000 lux, 0 h", "result": 100.00, "unit": "%"},
      {"measurement": "Relative content", "setting": "[3]; under light 30,000 lux, 1 h, salts in water, acidic reference in 30% to 50% ethanol", "result": 69.35, "unit": "%"},
      {"measurement": "Relative content", "setting": "[3]; under light 30,000 lux, 2 h, salts in water, acidic reference in 30% to 50% ethanol", "result": 59.05, "unit": "%"},
      {"measurement": "Relative content", "setting": "[3]; under light 30,000 lux, 3 h, salts in water, acidic reference in 30% to 50% ethanol", "result": 54.02, "unit": "%"}
    ]}
  ]
}
